Experimental data: US20220041606A1, “POSITIVE ALLOSTERIC MODULATORS OF THE MUSCARINIC ACETYLCHOLINE RECEPTOR M1” (Vanderbilt University, priority 2020, published 2022)

Key:
[1] = biological target: T1, human mAChR M1 (Homo sapiens, UniProt P11229); assay: mAChR M1 cell-based functional assay (calcium mobilization), PAM activity: increase in the EC20 acetylcholine response; conditions: CHO-K1 cells expressing hM1; potentiation of EC20 acetylcholine response
T1 construct: host or cells: CHO-K1 cells (ATCC), stably transfected using Lipofectamine2000
T1 sequence (P11229 1-460): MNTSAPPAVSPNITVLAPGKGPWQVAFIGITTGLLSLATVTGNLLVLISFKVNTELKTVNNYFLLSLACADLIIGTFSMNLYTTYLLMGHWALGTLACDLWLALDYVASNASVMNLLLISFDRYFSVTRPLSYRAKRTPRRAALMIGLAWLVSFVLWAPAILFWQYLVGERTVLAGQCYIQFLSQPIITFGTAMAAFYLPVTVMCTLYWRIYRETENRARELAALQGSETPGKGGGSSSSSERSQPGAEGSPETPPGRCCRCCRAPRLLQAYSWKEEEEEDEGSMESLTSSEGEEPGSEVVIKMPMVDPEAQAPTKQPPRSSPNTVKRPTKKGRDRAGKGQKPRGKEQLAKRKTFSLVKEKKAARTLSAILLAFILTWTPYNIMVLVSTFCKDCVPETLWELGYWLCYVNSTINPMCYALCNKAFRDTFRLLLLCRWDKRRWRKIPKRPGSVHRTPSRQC
Outline: (§1)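 CHO-K1 cells stably expressing hM1, loaded with Fluo-4 AM; calcium flux read on FDSS 6000. Compound (11-point, 1:3 CRC) added at 4 s, EC20 acetylcholine at 144 s, EC80 at 230 s; agonism from response to compound alone, PAM from increase in EC20 response; Emax relative to acetylcholine maximum, four-parameter fit.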

[2] = biological target: T1, human mAChR M1; assay: mAChR M1 cell-based functional assay (calcium mobilization), agonist activity upon compound addition; conditions: CHO-K1 cells expressing hM1; for EC50: compound alone, before acetylcholine addition; for Emax: relative to the maximum for acetylcholine
Outline: as §1

| SMILES | EC50 [1] [µM] | Emax [1] [%] | EC50 [2] [µM] | Emax [2] [%] |
| --- | --- | --- | --- | --- |
| O=C(N[C@H]1CCCC[C@@H]1O)c1cn(Cc2ccc(-c3cscn3)cc2)c(=O)c2cccnc12 [Compound A59, N-((1S,2S)-2-hydroxycyclohexyl)-5-oxo-6-(4-(thiazol-4-yl)benzyl)-5,6-dihydro-1,6-naphthyridine-8-carboxamide] | 0.42 | 45 | > 10 | < 5 |
| Cn1cc2c(-c3cc(F)c(Cn4cc(C(=O)N[C@H]5CC[C@@H]5O)c5nccnc5c4=O)c(F)c3)cccc2n1 [Compound A69, 6-(2,6-difluoro-4-(2-methyl-2H-indazol-4-yl)benzyl)-N-((1S,2S)-2-hydroxycyclobutyl)-5-oxo-5,6-dihydropyrido[3,4-b]pyrazine-8-carboxamide] | 3.89 | 57 | > 10 | < 5 |
| Cc1cncc(-c2cc(F)c(Cn3cc(C(=O)N[C@H]4CCOC[C@@H]4O)c4ncccc4c3=O)c(F)c2)c1 [Compound A33, 6-(2,6-difluoro-4-(5-methylpyridin-3-yl)benzyl)-N-((3R,4S)-3-hydroxytetrahydro-2H-pyran-4-yl)-5-oxo-5,6-dihydro-1,6-naphthyridine-8-carboxamide] | 0.86 | 64 | 3.22 | 13 |
| Cn1cc(-c2ccc(Cn3cc(C(=O)N[C@H]4CCC[C@@H]4O)c4nccnc4c3=O)c(F)c2)cn1 [Compound A79, 6-(2-fluoro-4-(1-methyl-1H-pyrazol-4-yl)benzyl)-N-((1S,2S)-2-hydroxycyclopentyl)-5-oxo-5,6-dihydropyrido[3,4-b]pyrazine-8-carboxamide] | ≥ 10 | 51 | > 10 | < 5 |
| Cn1cc(-c2ccc(Cn3cc(C(=O)N[C@H]4CCOC[C@@H]4O)c4sccc4c3=O)c(F)c2)cn1 [Compound D29, 5-(2-fluoro-4-(1-methyl-1H-pyrazol-4-yl)benzyl)-N-((3R,4S)-3-hydroxytetrahydro-2H-pyran-4-yl)-4-oxo-4,5-dihydrothieno[3,2-c]pyridine-7-carboxamide] | > 10 | 37 | > 10 | < 5 |
| Cc1cn2c(=O)n(Cc3ccc(-c4ccn(C)n4)cc3F)cc(C(=O)N[C@H]3CCCC[C@@H]3O)c2n1 [Compound B26, 6-(2-fluoro-4-(1-methyl-1H-pyrazol-3-yl)benzyl)-N-((1S,2S)-2-hydroxycyclohexyl)-2-methyl-5-oxo-5,6-dihydroimidazo[1,2-c]pyrimidine-8-carboxamide] | 5.53 | 28 | > 10 | < 5 |
| Cn1cc(-c2ccc(Cn3cc(C(=O)N[C@H]4CCCC[C@@H]4O)c4nccnc4c3=O)c(F)c2)cn1 [Compound A54, 6-(2-fluoro-4-(1-methyl-1H-pyrazol-4-yl)benzyl)-N-((1S,2S)-2-hydroxycyclohexyl)-5-oxo-5,6-dihydropyrido[3,4-b]pyrazine-8-carboxamide] | 2.37 | 62 | > 10 | 26 |
| Cn1cc(-c2ccc(Cn3cc(C(=O)N[C@H]4CCCC[C@@H]4O)c4nccn4c3=O)cn2)cn1 [Compound B11, N-((1S,2S)-2-hydroxycyclohexyl)-6-((6-(1-methyl-1H-pyrazol-4-yl)pyridin-3-yl)methyl)-5-oxo-5,6-dihydroimidazo[1,2-c]pyrimidine-8-carboxamide] | 0.21 | 63 | 5 | 45 |
| Cn1ccc(-c2ccc(Cn3cc(C(=O)N[C@H]4CCOC[C@@H]4O)c4occc4c3=O)c(F)c2)n1 [Compound D6, 5-(2-fluoro-4-(1-methyl-1H-pyrazol-3-yl)benzyl)-N-((3R,4S)-3-hydroxytetrahydro-2H-pyran-4-yl)-4-oxo-4,5-dihydrofuro[3,2-c]pyridine-7-carboxamide] | > 10 | 68 | > 10 | < 5 |
| Cn1cc(-c2ccc(Cn3cc(C(=O)NCC(C)(C)O)c4nccnc4c3=O)c(F)c2)cn1 [Compound A80, 6-(2-fluoro-4-(1-methyl-1H-pyrazol-4-yl)benzyl)-N-(2-hydroxy-2-methylpropyl)-5-oxo-5,6-dihydropyrido[3,4-b]pyrazine-8-carboxamide] | ≥ 10 | 30 | > 10 | < 5 |
| Cn1cc2c(-c3cc(F)c(Cn4cc(C(=O)N[C@H]5CCOC[C@@H]5O)c5ncn(C)c5c4=O)c(F)c3)cccc2n1 [Compound C4, 5-(2,6-difluoro-4-(2-methyl-2H-indazol-4-yl)benzyl)-N-((3R,4S)-3-hydroxytetrahydro-2H-pyran-4-yl)-3-methyl-4-oxo-4,5-dihydro-3H-imidazo[4,5-c]pyridine-7-carboxamide] | 0.31 | 58 | > 10 | < 5 |
| Cn1cc2c(-c3cc(F)c(Cn4cc(C(=O)NC5CC6(COC6)C5)c5nccnc5c4=O)c(F)c3)cccc2n1 [Compound A71, 6-(2,6-difluoro-4-(2-methyl-2H-indazol-4-yl)benzyl)-5-oxo-N-(2-oxaspiro[3.3]heptan-6-yl)-5,6-dihydropyrido[3,4-b]pyrazine-8-carboxamide] | 3.1 | 57 | > 10 | < 5 |
| Cc1cn2c(=O)n(Cc3ccc(-c4cnn(C)c4)cc3F)cc(C(=O)N[C@H]3CCOC[C@@H]3O)c2n1 [Compound B23, 6-(2-Fluoro-4-(1-methyl-1H-pyrazol-4-yl)benzyl)-N-((3R,4S)-3-hydroxytetrahydro-2H-pyran-4-yl)-2-methyl-5-oxo-5,6-dihydroimidazo[1,2-c]pyrimidine-8-carboxamide] | 7.85 | 39 | > 10 | < 5 |
| Cn1cc2c(-c3cc(F)c(Cn4cc(C(=O)NC5CCOCC5)c5nccnc5c4=O)c(F)c3)cccc2n1 [Compound A70, 6-(2,6-difluoro-4-(2-methyl-2H-indazol-4-yl)benzyl)-5-oxo-N-(tetrahydro-2H-pyran-4-yl)-5,6-dihydropyrido[3,4-b]pyrazine-8-carboxamide] | 5.5 | 45 | > 10 | < 5 |
| Cn1cc(-c2ccc(Cn3cc(C(=O)N[C@@H]4CC[C@H]4O)c4nccn4c3=O)c(F)c2)cn1 [Compound B8, 6-(2-fluoro-4-(1-methyl-1H-pyrazol-4-yl)benzyl)-N-((1R,2R)-2-hydroxycyclobutyl)-5-oxo-5,6-dihydroimidazo[1,2-c]pyrimidine-8-carboxamide] | 2 | 72 | – | 29 |
| Cn1ccc(-c2ccc(Cn3cc(C(=O)N[C@H]4CCCCC[C@@H]4O)c4occc4c3=O)c(F)c2)n1 [Compound D9, 5-(2-fluoro-4-(1-methyl-1H-pyrazol-3-yl)benzyl)-N-((1S,2S)-2-hydroxycycloheptyl)-4-oxo-4,5-dihydrofuro[3,2-c]pyridine-7-carboxamide] | 3.09 | 80 | > 10 | < 5 |
| Cn1cc(-c2ccc(Cn3cc(C(=O)N[C@H]4CCCC[C@@H]4O)c4ncccc4c3=O)c(F)c2)cn1 [Compound A7, 6-(2-fluoro-4-(1-methyl-1H-pyrazol-4-yl)benzyl)-N-((1S,2S)-2-hydroxycyclohexyl)-5-oxo-5,6-dihydro-1,6-naphthyridine-8-carboxamide] | 0.29 | 89 | – | 12 |
| Cn1nccc1-c1ccc(Cn2cc(C(=O)N[C@H]3CCCC[C@@H]3O)c3nccn3c2=O)c(F)c1 [Compound B32, 6-(2-fluoro-4-(1-methyl-1H-pyrazol-5-yl)benzyl)-N-((1S,2S)-2-hydroxycyclohexyl)-5-oxo-5,6-dihydroimidazo[1,2-c]pyrimidine-8-carboxamide] | 0.89 | 80 | > 10 | < 5 |
| Cn1ccc(-c2ccc(Cn3cc(C(=O)N[C@H]4CCCC[C@@H]4O)c4occc4c3=O)c(F)c2)n1 [Compound D7, 5-(2-fluoro-4-(1-methyl-1H-pyrazol-3-yl)benzyl)-N-((1S,2S)-2-hydroxycyclohexyl)-4-oxo-4,5-dihydrofuro[3,2-c]pyridine-7-carboxamide] | 6.05 | 82 | > 10 | < 5 |
| Cn1cc2c(-c3cc(F)c(Cn4cc(C(=O)NCC(C)(C)O)c5nccnc5c4=O)c(F)c3)cccc2n1 [Compound A73, 6-(2,6-difluoro-4-(2-methyl-2H-indazol-4-yl)benzyl)-N-(2-hydroxy-2-methylpropyl)-5-oxo-5,6-dihydropyrido[3,4-b]pyrazine-8-carboxamide] | 4.04 | 67 | > 10 | < 5 |
| Cn1ccc(-c2ccc(Cn3cc(C(=O)N[C@H]4CCOC[C@@H]4O)c4nccnc4c3=O)c(F)c2)n1 [Compound A63, 6-(2-fluoro-4-(1-methyl-1H-pyrazol-3-yl)benzyl)-N-((3R,4S)-3-hydroxytetrahydro-2H-pyran-4-yl)-5-oxo-5,6-dihydropyrido[3,4-b]pyrazine-8-carboxamide] | ≥ 10 | 55 | > 10 | 7 |
